Experimental data published in a melting point compilation (Tetko et al.).

Row | melting point [°C] | SMILES
1 | 185 to 187 | O=C(Cc1ccc2ccccc2c1)NO
2 | 209 to 211 | COC(=O)c1ccn2c(I)cnc2c1
3 | 150 to 152 | CCOc1ccc(NC(=O)CO)cc1
4 | 116 to 118 | O=C(O)C1CC1c1cccc2ccccc12 (stereo not given)
5 | 185 to 187 | Nc1cc(-c2ccco2)nn1-c1cccc([N+](=O)[O-])c1
6 | 134 to 136 | O=C1c2ccccc2N2C(=O)CCC2(C(=O)O)N1Cc1ccccc1 (stereo not given)
7 | 84 to 86 | C=CCn1c(SCCCCCCCCCCCC)nc2scc(-c3ccccc3)c2c1=O
8 | 128 to 130 | OCc1ccc(-n2ccnc2)nc1
9 | 167 to 169 | Cc1cc(N)ccc1N1C(=O)CCC1=O
10 | 99 to 101 | CCNc1ccc(C)nn1
11 | 131 to 133 | Nc1cc(-c2c(F)cc(F)cc2F)no1
12 | 69 to 71 | OCc1ccc(F)cc1Br
13 | 216 to 218 | CCC1C(=O)NCCN1C(N)=S (stereo not given)
14 | 145 to 147 | CN(C1CCCCC1)S(=O)(=O)c1cccc(C(=O)O)c1
15 | 157 to 159 | O=S(=O)(Cl)c1ccc2c(c1)Cc1ccccc1-2
16 | 200 to 202 | O=C(O)c1csc(-c2cccc(C(F)(F)F)c2)n1
17 | 29 to 31 | O=C(O)C1CC2(CCCC2)C1
18 | 85 to 87 | Cc1cccc(NC2CCNCC2)n1
19 | 169 to 171 | NC(=O)c1ccc(N)cn1
20 | 62 to 64 | CCOC(=O)CS(N)(=O)=O
21 | 96 to 98 | COC(=O)c1ccc(O)c(C(C)=O)c1
22 | 118 to 120 | Nc1cccc(C(=O)NCC(F)(F)F)c1
23 | 144 to 146 | O=C(Nc1ccc(Br)cn1)C1CCNCC1
24 | 115 to 117 | Nc1nc(Cc2ccccc2Br)cs1

Row | melting point [°C] | SMILES
25 | 250 to 252 | CCOC(=O)c1c(-c2ccccc2)csc1NC(=O)C(C)Cl (stereo not given)
26 | 177 to 179 | O=S(=O)(Cl)c1c[nH]c2nccc(Br)c12
27 | 77 to 79 | Clc1nc(C2CC2)nc2scc(-c3ccccc3)c12
28 | 285 to 287 | O=C(O)c1ccc(N2CC=CC2)cc1
29 | 191 to 193 | Cc1ccc(NC(=O)c2cccc(Cl)c2)c(C(=O)O)c1
30 | 78 to 80 | NC(=O)C1(N)CCOCC1
31 | 146 to 148 | CSc1nc(C)c(CC(=O)O)s1
32 | 172 to 174 | O=S(=O)(Nc1nc2ccccc2nc1Cl)c1ccccc1
33 | 29 to 31 | O=Cc1cccc(OCC(F)(F)F)c1
34 | 163 to 165 | CCOc1ccc2nc(NS(=O)(=O)c3cc(C(=O)O)c(Cl)cc3Cl)sc2c1
35 | 53 to 55 | CCOc1ccccc1-n1nnnc1S
36 | 86 to 88 | Cc1ccc(C#N)c(N2CCOCC2)c1
37 | 101 to 103 | CCc1ccccc1-n1cc(O)c(C(=O)O)n1
38 | 185 to 187 | Nc1nccc(-c2cccs2)n1
39 | 152 to 154 | Cn1ncc2c(=O)[nH]nnc21
40 | 102 to 103 | O=C(O)c1ccc(SCc2cn3ccccc3n2)cc1
41 | 111 to 113 | O=C(O)CCc1cccc([N+](=O)[O-])c1
42 | 149 to 151 | COc1ccc(-n2nc(C(=O)O)cc2C)cc1
43 | 369 to 371 | O=C(O)c1ccc(NC2=NS(=O)(=O)c3ccccc32)cc1
44 | 214 to 216 | CCOc1ncc(C(=O)O)cc1Cl
45 | 123 to 125 | CC(C)C(Br)C(=O)Nc1ccccc1C(F)(F)F (stereo not given)
46 | 118 to 120 | Nc1ccc2[nH]c(-c3ccc(F)cc3)nc2c1
47 | 223 to 225 | NC(=O)c1cn[nH]c1
48 | 65 to 67 | C=CCC(NC(=O)OCc1ccccc1)c1ccccc1 (stereo not given)

Row | melting point [°C] | SMILES
49 | 202 to 204 | CC(=O)Nc1cccc(F)c1C(=O)O
50 | 47 to 49 | CC(N)c1ccc(-c2cccnc2)cc1 (stereo not given)
51 | 98 to 100 | Nc1cnn(CC(=O)NCCO)c1
52 | 229 to 231 | Cn1cc(S(=O)(=O)N2CCOCC2)cc1C(=O)NC(=O)CCl
53 | 143 to 145 | Clc1nnc(-c2cccc3ncccc23)s1
54 | 51 to 53 | CC(C)(C)CC(=O)NN
55 | 159 to 161 | COC(=O)c1cc(N)cc([N+](=O)[O-])c1
56 | 118 to 120 | [N-]=[N+]=NS(=O)(=O)c1cccc2c1N=S=N2
57 | 219 to 221 | CC(C)(C)OC(=O)N1CCN(C(=O)C2CCCN2)CC1 (stereo not given)
58 | 55 to 57 | COC(=O)c1ccncc1C(=O)OC
59 | 87 to 89 | NNc1c(F)cc(F)cc1Cl
60 | 46 to 48 | CC(O)C1CCCCN1C(=O)OC(C)(C)C (stereo not given)
61 | 99 to 101 | COc1ccc(Br)cc1C(N)CO (stereo not given)
62 | 168 to 170 | CC(C)NS(=O)(=O)c1cc(C(=O)O)ccc1F
63 | 274 to 276 | N#Cc1cnc2ccccc2c1N
64 | 217 to 219 | CC1CC(C)CN(S(=O)(=O)c2ccc(NN)nc2)C1 (stereo not given)
65 | 63 to 65 | CS(=O)(=O)c1ccc(S)cc1
66 | 92 to 94 | CC1(C)CN(C(=O)OC(C)(C)C)c2ccccc2N1
67 | 159 to 161 | CCCCc1ccc(NS(=O)(=O)c2ccc(N)cc2)cc1
68 | 133 to 135 | COc1ccc(NC(=O)C(C)Cl)cc1 (stereo not given)
69 | 123 to 125 | N#CC1(C(=O)O)CCc2ccccc2C1 (stereo not given)
70 | 75 to 77 | CC(=O)NCc1cccc(Br)c1
71 | 59 to 61 | CSc1ccccc1NC(=O)C(C)Cl (stereo not given)
72 | 185 to 187 | Cc1c(N)cccc1S(=O)(=O)NC(C)(C)C

Row | melting point [°C] | SMILES
73 | 167 to 169 | O=C(O)c1cc(I)cc([N+](=O)[O-])c1
74 | 91 to 93 | CC(C(=O)O)c1ccc(S(C)(=O)=O)cc1 (stereo not given)
75 | 87 to 89 | Nc1cc(F)ccc1OCC1CCCO1 (stereo not given)
76 | 78 to 80 | Brc1cnn(-c2nccs2)c1
77 | 103 to 105 | O=Cc1cncc2ccccc12
78 | 181 to 183 | O=C(O)c1ccc(CN2CCCCC2=O)cc1
79 | 110 to 112 | COc1ccc(NC(=O)CC#N)cc1Cl
80 | 210 to 212 | O=C(O)C1=Nc2cccc3cccc(c23)N1
81 | 103 to 105 | Cc1cc(NC(=O)OC(C)(C)C)ccc1N
82 | 164 to 166 | O=C(O)c1cc(Cl)c(Cl)[nH]1
83 | 121 to 123 | O=C(CCl)Nc1ccc(-c2ccccc2)cc1
84 | 61 to 63 | COC(=O)c1cc(C)c(C)c(S(=O)(=O)Cl)c1
85 | 139 to 141 | CC(SCC(=O)Nc1ccc(Br)cc1)C(=O)O (stereo not given)
86 | 171 to 175 | O=C(O)CNC(=O)c1ccc2ccccc2c1
87 | 388 to 390 | Cc1nc2sc(C(=O)O)c(C)c2c(=O)[nH]1
88 | 159 to 161 | CN(C)S(=O)(=O)c1ccc(NC(=O)CCCl)cc1
89 | 178 to 180 | NC(=O)c1ccc(NC(=O)OCC(F)(F)F)cc1Cl
90 | 284 to 286 | Nc1cc(=O)[nH]c(=O)n1Cc1ccccc1
91 | 164 to 166 | NC(=S)N1CCN(c2ccccn2)CC1
92 | 96 to 98 | CNc1ccccc1S(C)(=O)=O
93 | 158 to 160 | Cc1cc(C)cc(-n2ncc(C(=O)O)n2)c1
94 | 106 to 108 | COc1cc(C=O)ccc1OCc1ccncc1
95 | 236 to 238 | Cn1cc(S(=O)(=O)N2CCCCC2)cc1C(=O)O
96 | 224 to 226 | Cc1cc(C)nc(NCc2cccc(C(=O)O)c2)n1

Row | melting point [°C] | SMILES
97 | 92 to 94 | O=C(O)C=CC(=O)NCc1cccnc1
98 | 64 to 66 | CN1CCCc2ccc(S(=O)(=O)Cl)cc21
99 | 173 to 175 | O=S(=O)(NC1=NCCN1)c1cccs1
100 | 191 to 193 | Cc1nc(-c2cccc(Cl)c2)sc1C(=O)O
101 | 56 to 58 | CN1CCN(C(=O)CO)CC1
102 | 118 to 120 | Cc1ccc(N(C(=O)CCl)C2C=CS(=O)(=O)C2)cc1 (stereo not given)
103 | 299 to 301 | Cn1cc(C(=O)O)c(-c2ccc([N+](=O)[O-])cc2)n1
104 | 126 to 128 | O=C(NCc1cn[nH]c1)OCc1ccccc1
105 | 149 to 151 | Cc1ccc(C)c(S(N)(=O)=O)c1
106 | 115 to 117 | CC(N)c1cccc(NC(=O)c2ccccc2)c1 (stereo not given)
107 | 307 to 309 | O=C(O)c1cc(/C=C/c2cccc(Br)c2)nc2ccc(Br)cc12
108 | 183 to 185 | COc1ccccc1OCc1ccc(C(=O)O)o1
109 | 218 to 220 | Cc1c(C2CC2)nc2ccc(Br)cc2c1C(=O)O
110 | 47 to 49 | NN1CCCC1=O
111 | 186 to 188 | Cc1nc(-c2cc(C(=O)O)co2)cs1
112 | 184 to 186 | Nn1c(S)nnc1-c1ccccc1F
113 | 133 to 135 | C=CCNc1nnc(S)s1
114 | 185 to 187 | O=C(O)Cc1coc(-c2cccs2)n1
115 | 79 to 81 | CN(C)c1ccnc(Cl)n1
116 | 176 to 178 | CN(C)S(=O)(=O)c1ccc(NCCO)c(C(=O)O)c1
117 | 179 to 181 | CC(C)(C)OC(=O)Nc1cn[nH]c1
118 | 118 to 120 | CCn1nnnc1-c1cccc(N)c1
119 | 87 to 89 | Cc1cc(-c2nc(C3CC3)no2)ccc1N
120 | 63 to 65 | COC(=O)C(C(=O)OC)c1ccc(C(F)(F)F)cc1[N+](=O)[O-]

Row | melting point [°C] | SMILES
121 | 175 to 177 | Cc1nc(C(=O)O)nn1-c1ccccc1C(C)C
122 | 111 to 113 | CC(C)CCNS(=O)(=O)Cc1ccc(N)cc1
123 | 184 to 186 | O=C(O)c1ccc(O)c2ccccc12
124 | 145 to 147 | CCOC(=O)c1c(N)sc2c1CCN(C(=O)OCC)C2
125 | 185 to 187 | CCOc1cc(C(=O)O)c(N)cc1OC
126 | 133 to 135 | O=C(O)C1CC(=O)N(c2cccc(Cl)c2)C1 (stereo not given)
127 | 160 to 162 | O=S1(=O)CCC(Cc2nnc(S)o2)C1 (stereo not given)
128 | 179 to 181 | COc1ccc(CCN2C(=O)NC(=O)C2=O)cc1
129 | 56 to 58 | CC1C(=O)NC(=O)C1C (stereo not given)
130 | 187 to 189 | Cc1sc2ncnc(SCCC(=O)O)c2c1C
131 | 109 to 111 | O=C(Nc1cccc2ccccc12)OCC(F)(F)F
132 | 77 to 79 | O=C1CCCN1c1ccccc1[N+](=O)[O-]
133 | 179 to 181 | CCn1cnnc1-c1cccc(N)c1
134 | 272 to 274 | O=C(O)Cn1[nH]c(=O)c2ccccc2c1=O
135 | 38 to 42 | N#CCCNc1ccc(F)cc1
136 | 176 to 178 | O=C(NC(Cc1cccnc1)C(=O)O)c1ccccc1 (stereo not given)
137 | 191 to 193 | CC(C)c1ccc(S(=O)(=O)c2ccc(NN)cc2)cc1
138 | 169 to 171 | CC(C)(F)c1nc(N)nc(Cl)n1
139 | 257 to 259 | O=C(O)CCC(=O)Nc1nccs1

Row | SMILES | melting point [°C]
140 | NCCCc1c[nH]c2ccccc12 | 62 to 64
